Legend:
[1] = target: baculovirus-expressed ALK (Homo sapiens, UniProt Q9UM73); assay: ALK Kinase Assay (ELISA/TRF, PLC-γ substrate); assay type: biochemical; conditions: read-out: ALK Kinase Inhibition (IC50); further: 1 µM ATP (Km level)
In short: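 An ELISA adapted from a trkA format was used: wells carried GST-fused PLC-γ substrate, and enzyme addition (30 ng/ml ALK) started a 15-minute reaction at 37° C.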

[2] = target: T1, c-Met (cytoplasmic domain) (Homo sapiens, UniProt P08581); assay: c-Met Kinase Assay (ELISA/TRF, PLC-γ substrate); assay type: biochemical; conditions: 3 μM ATP (Km level); read-out: c-Met Kinase Inhibition (IC50)
T1 construct: Reactions were initiated with 30 ng/mL c-Met (cytoplasmic domain, Invitrogen Corporation #PV3143); purchased Invitrogen Corporation PV3143
In short: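 c-Met cytoplasmic domain (30 ng/mL) phosphorylates plate-coated GST–PLC-γ for 15 min at 37 °C. Phosphotyrosine detected with Eu-labeled PT66 antibody by time-resolved fluorescence. IC50 from variable-slope sigmoidal fit of % inhibition vs log concentration.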

baculovirus-expressed ALK, sequence (Q9UM73 19-1620): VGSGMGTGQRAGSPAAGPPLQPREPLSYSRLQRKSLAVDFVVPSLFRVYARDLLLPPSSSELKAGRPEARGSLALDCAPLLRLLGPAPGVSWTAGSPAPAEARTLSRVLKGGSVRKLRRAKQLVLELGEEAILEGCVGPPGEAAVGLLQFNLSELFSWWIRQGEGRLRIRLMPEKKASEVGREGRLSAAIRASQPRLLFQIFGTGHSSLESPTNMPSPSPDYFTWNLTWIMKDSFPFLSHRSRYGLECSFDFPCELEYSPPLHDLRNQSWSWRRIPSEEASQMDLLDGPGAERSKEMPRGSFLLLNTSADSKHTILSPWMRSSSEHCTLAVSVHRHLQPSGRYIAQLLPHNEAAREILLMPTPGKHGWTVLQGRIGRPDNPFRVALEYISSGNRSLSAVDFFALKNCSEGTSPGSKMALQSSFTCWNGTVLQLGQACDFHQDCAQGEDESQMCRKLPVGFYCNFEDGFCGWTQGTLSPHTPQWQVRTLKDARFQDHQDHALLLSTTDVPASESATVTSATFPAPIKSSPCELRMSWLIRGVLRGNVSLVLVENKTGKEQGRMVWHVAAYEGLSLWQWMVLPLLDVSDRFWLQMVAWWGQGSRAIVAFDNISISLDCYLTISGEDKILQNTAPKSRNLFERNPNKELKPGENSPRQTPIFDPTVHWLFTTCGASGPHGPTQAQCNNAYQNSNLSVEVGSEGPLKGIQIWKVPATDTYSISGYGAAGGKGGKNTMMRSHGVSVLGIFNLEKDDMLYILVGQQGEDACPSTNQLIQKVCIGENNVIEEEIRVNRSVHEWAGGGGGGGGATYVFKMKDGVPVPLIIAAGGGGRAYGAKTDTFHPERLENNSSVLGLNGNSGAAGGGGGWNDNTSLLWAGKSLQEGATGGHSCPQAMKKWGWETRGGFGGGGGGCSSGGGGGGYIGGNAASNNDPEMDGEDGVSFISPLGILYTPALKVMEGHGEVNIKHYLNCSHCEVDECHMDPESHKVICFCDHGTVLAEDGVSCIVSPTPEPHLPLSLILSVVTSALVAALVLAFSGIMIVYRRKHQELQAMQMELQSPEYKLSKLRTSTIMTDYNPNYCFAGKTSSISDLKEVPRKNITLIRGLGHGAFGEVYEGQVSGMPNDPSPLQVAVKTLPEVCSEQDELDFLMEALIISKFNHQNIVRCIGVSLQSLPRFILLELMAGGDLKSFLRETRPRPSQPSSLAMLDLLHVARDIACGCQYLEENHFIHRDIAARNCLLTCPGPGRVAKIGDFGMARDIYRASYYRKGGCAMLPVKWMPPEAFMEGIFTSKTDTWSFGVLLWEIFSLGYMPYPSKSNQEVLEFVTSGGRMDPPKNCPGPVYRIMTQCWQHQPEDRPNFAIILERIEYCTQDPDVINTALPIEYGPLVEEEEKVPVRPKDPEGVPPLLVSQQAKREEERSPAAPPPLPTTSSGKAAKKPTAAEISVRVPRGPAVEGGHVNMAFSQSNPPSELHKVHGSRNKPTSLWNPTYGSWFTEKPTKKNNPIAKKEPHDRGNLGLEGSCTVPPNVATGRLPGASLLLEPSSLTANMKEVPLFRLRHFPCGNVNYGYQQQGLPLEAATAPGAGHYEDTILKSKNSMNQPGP
T1 sequence (P08581 956-1390 limits assumed): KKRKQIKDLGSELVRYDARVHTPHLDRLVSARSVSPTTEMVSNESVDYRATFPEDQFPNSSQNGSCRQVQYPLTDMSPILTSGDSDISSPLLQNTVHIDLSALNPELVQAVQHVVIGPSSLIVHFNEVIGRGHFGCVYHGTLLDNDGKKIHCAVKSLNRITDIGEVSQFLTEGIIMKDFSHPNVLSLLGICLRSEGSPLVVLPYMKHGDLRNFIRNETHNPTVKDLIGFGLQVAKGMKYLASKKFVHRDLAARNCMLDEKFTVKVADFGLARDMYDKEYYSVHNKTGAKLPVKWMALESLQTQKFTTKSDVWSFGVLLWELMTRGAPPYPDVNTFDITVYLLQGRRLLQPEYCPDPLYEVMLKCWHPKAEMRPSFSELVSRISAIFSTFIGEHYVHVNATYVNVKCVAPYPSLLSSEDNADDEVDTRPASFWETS

## O=C(NCCc1cccs1)c1cnc2c(c1)N(Cc1cc(Cl)ccc1Cl)CCN2 [Example 232, 1-(2,5-Dichlorobenzyl)-1,2,3,4-tetrahydropyrido[2,3-b]pyrazine-7-carboxylic acid (2-thiophen-2-yl-ethyl)amide]
[1]
  IC50: 0.1 to 1 µM
[2]
  IC50: > 100 µM

## O=C(NC(c1ccccc1)c1ccccc1)c1cnc2c(c1)N(Cc1cc(Cl)ccc1Cl)CCN2 [Example 233, 1-(2,5-Dichlorobenzyl)-1,2,3,4-tetrahydropyrido[2,3-b]pyrazine-7-carboxylic acid benzhydrylamide]
[1]
  IC50: 1 to 10 µM
[2]
  IC50: 10 to 100 µM

## O=C(NCc1ccncc1)c1cnc2c(c1)N(Cc1cc(Cl)ccc1Cl)CCN2 [Example 234, 1-(2,5-Dichlorobenzyl)-1,2,3,4-tetrahydropyrido[2,3-b]pyrazine-7-carboxylic acid (pyridin-4-ylmethyl)amide]
[1]
  IC50: 1 to 10 µM
[2]
  IC50: > 100 µM

## O=C(NCc1cccnc1)c1cnc2c(c1)N(Cc1cc(Cl)ccc1Cl)CCN2 [Example 235, 1-(2,5-Dichlorobenzyl)-1,2,3,4-tetrahydropyrido[2,3-b]pyrazine-7-carboxylic acid (pyridin-3-ylmethyl)amide]
[1]
  IC50: 1 to 10 µM
[2]
  IC50: 10 to 100 µM

## CC(C)NC(=O)CN1CCN(C(=O)c2cnc3c(c2)N(Cc2cc(Cl)ccc2Cl)CCN3)CC1 [Example 236, 2-{4-[1-(2,5-Dichlorobenzyl)-1,2,3,4-tetrahydropyrido[2,3-b]pyrazine-7-carbonyl]piperazin-1-yl}-N-isopropylacetamide]
[1]
  IC50: 1 to 10 µM
[2]
  IC50: 10 to 100 µM

## Cc1cc(N2CCN(C(=O)c3cnc4c(c3)N(Cc3cc(Cl)ccc3Cl)CCN4)CC2)c2ccccc2n1 [Example 237, [1-(2,5-Dichlorobenzyl)-1,2,3,4-tetrahydropyrido[2,3-b]pyrazin-7-yl]-[4-(2-methylquinolin-4-yl)piperazin-1-yl]methanone]
[1]
  IC50: 1 to 10 µM
[2]
  IC50: 1 to 10 µM

## O=C(c1cnc2c(c1)N(Cc1cc(Cl)ccc1Cl)CCN2)N1CCC[C@H]1CN1CCCC1 [Example 238, [1-(2,5-Dichlorobenzyl)-1,2,3,4-tetrahydropyrido[2,3-b]pyrazin-7-yl]-((S)-2-pyrrolidin-1-ylmethyl-pyrrolidin-1-yl)methanone]
[1]
  IC50: 1 to 10 µM
[2]
  IC50: > 100 µM

## O=C(NCc1cc(C(F)(F)F)cc(C(F)(F)F)c1)c1cnc2c(c1)N(Cc1cc(Cl)ccc1Cl)CCN2 [Example 239, 1-(2,5-Dichlorobenzyl)-1,2,3,4-tetrahydropyrido[2,3-b]pyrazine-7-carboxylic acid 3,5-bis-(trifluoromethyl)benzylamide]
[1]
  IC50: 1 to 10 µM
[2]
  IC50: > 100 µM

## NS(=O)(=O)c1ccc(CCNC(=O)c2cnc3c(c2)N(Cc2cc(Cl)ccc2Cl)CCN3)cc1 [Example 240, 1-(2,5-Dichlorobenzyl)-1,2,3,4-tetrahydropyrido[2,3-b]pyrazine-7-carboxylic acid [2-(4-sulfamoylphenyl)ethyl]amide]
[1]
  IC50: 0.1 to 1 µM
[2]
  IC50: > 100 µM

## O=C(c1cnc2c(c1)N(Cc1cc(Cl)ccc1Cl)CCN2)N1CCN(c2cnccn2)CC1 [Example 241, [1-(2,5-Dichlorobenzyl)-1,2,3,4-tetrahydropyrido[2,3-b]pyrazin-7-yl]-(2,3,5,6-tetrahydro-[1,2′]bipyrazinyl-4-yl)methanone]
[1]
  IC50: 0.1 to 1 µM
[2]
  IC50: > 100 µM

## O=C(NCc1csc(-c2ccccc2)n1)c1cnc2c(c1)N(Cc1cc(Cl)ccc1Cl)CCN2 [Example 242, 1-(2,5-Dichlorobenzyl)-1,2,3,4-tetrahydropyrido[2,3-b]pyrazine-7-carboxylic acid (2-phenylthiazol-4-yl-methyl)amide]
[1]
  IC50: 1 to 10 µM
[2]
  IC50: > 100 µM

## O=C(c1cnc2c(c1)N(Cc1cc(Cl)ccc1Cl)CCN2)N1CCOCC1 [Example 243, [1-(2,5-Dichlorobenzyl)-1,2,3,4-tetrahydropyrido[2,3-b]pyrazin-7-yl]morpholin-4-yl-methanone]
[1]
  IC50: 10 to 100 µM
[2]
  IC50: 10 to 100 µM

## O=C(NCc1cccc2ccccc12)c1cnc2c(c1)N(Cc1cc(Cl)ccc1Cl)CCN2 [Example 244, 1-(2,5-Dichlorobenzyl)-1,2,3,4-tetrahydropyrido[2,3-b]pyrazine-7-carboxylic acid (naphthalen-1-yl-methyl)amide]
[1]
  IC50: 1 to 10 µM
[2]
  IC50: > 100 µM

## O=C(NC1CCc2ccccc21)c1cnc2c(c1)N(Cc1cc(Cl)ccc1Cl)CCN2 (stereo not drawn) [Example 245, 1-(2,5-Dichlorobenzyl)-1,2,3,4-tetrahydropyrido[2,3-b]pyrazine-7-carboxylic acid indan-1-ylamide]
[1]
  IC50: 0.1 to 1 µM
[2]
  IC50: 10 to 100 µM

## O=C(NCc1ccccc1)c1cnc2c(c1)N(Cc1cc(Cl)ccc1Cl)CCN2 [Example 246, 1-(2,5-Dichlorobenzyl)-1,2,3,4-tetrahydropyrido[2,3-b]pyrazine-7-carboxylic acid benzylamide]
[1]
  IC50: 0.1 to 1 µM
[2]
  IC50: > 100 µM

## COc1ccc(N2CCN(C(=O)c3cnc4c(c3)N(Cc3cc(Cl)ccc3Cl)CCN4)CC2)cc1 [Example 247, [1-(2,5-Dichlorobenzyl)-1,2,3,4-tetrahydropyrido[2,3-b]pyrazin-7-yl]-[4-(4-methoxyphenyl)piperazin-1-yl]methanone]
[1]
  IC50: 1 to 10 µM
[2]
  IC50: > 100 µM

## O=C(NC1CCCCC1)c1cnc2c(c1)N(Cc1cc(Cl)ccc1Cl)CCN2 [Example 248, 1-(2,5-Dichlorobenzyl)-1,2,3,4-tetrahydropyrido[2,3-b]pyrazine-7-carboxylic acid cyclohexylamide]
[1]
  IC50: 1 to 10 µM
[2]
  IC50: > 100 µM

## O=C(NCc1ccc(-c2ccccc2)cc1)c1cnc2c(c1)N(Cc1cc(Cl)ccc1Cl)CCN2 [Example 249, 1-(2,5-Dichlorobenzyl)-1,2,3,4-tetrahydropyrido[2,3-b]pyrazine-7-carboxylic acid (biphenyl-4-ylmethyl)amide]
[1]
  IC50: 10 to 100 µM
[2]
  IC50: > 100 µM

## O=C(c1cnc2c(c1)N(Cc1cc(Cl)ccc1Cl)CCN2)N1CCN(c2ccc(Cl)cc2)CC1 [Example 250, [4-(4-Chlorophenyl)piperazin-1-yl]-[1-(2,5-dichlorobenzyl)-1,2,3,4-tetrahydropyrido[2,3-b]pyrazin-7-yl]methanone]
[1]
  IC50: 0.1 to 1 µM
[2]
  IC50: > 100 µM

## O=C(NCCOc1ccccc1)c1cnc2c(c1)N(Cc1cc(Cl)ccc1Cl)CCN2 [Example 251, 1-(2,5-Dichlorobenzyl)-1,2,3,4-tetrahydropyrido[2,3-b]pyrazine-7-carboxylic acid (2-phenoxyethyl)amide]
[1]
  IC50: 10 to 100 µM
[2]
  IC50: 10 to 100 µM

## O=C(c1cnc2c(c1)N(Cc1cc(Cl)ccc1Cl)CCN2)N1CCN(C(=O)C2CCCO2)CC1 (stereo not drawn) [Example 252, [1-(2,5-Dichlorobenzyl)-1,2,3,4-tetrahydropyrido[2,3-b]pyrazin-7-yl]-[4-(tetrahydrofuran-2-carbonyl)piperazin-1-yl]methanone]
[1]
  IC50: 10 to 100 µM
[2]
  IC50: > 100 µM

## O=C(NCCc1ccccc1)c1cnc2c(c1)N(Cc1cc(Cl)ccc1Cl)CCN2 [Example 253, 1-(2,5-Dichlorobenzyl)-1,2,3,4-tetrahydropyrido[2,3-b]pyrazine-7-carboxylic acid phenethyl-amide]
[1]
  IC50: 0.1 to 1 µM
[2]
  IC50: > 100 µM

## O=C(NCC1CCCO1)c1cnc2c(c1)N(Cc1cc(Cl)ccc1Cl)CCN2 (stereo not drawn) [Example 254, 1-(2,5-Dichlorobenzyl)-1,2,3,4-tetrahydropyrido[2,3-b]pyrazine-7-carboxylic acid (tetrahydrofuran-2-yl-methyl)amide]
[1]
  IC50: 1 to 10 µM
[2]
  IC50: > 100 µM

## O=C(c1cnc2c(c1)N(Cc1cc(Cl)ccc1Cl)CCN2)N1CCN(Cc2ccc(Cl)cc2)CC1 [Example 255, [4-(4-Chlorobenzyl)piperazin-1-yl]-[1-(2,5-dichlorobenzyl)-1,2,3,4-tetrahydropyrido[2,3-b]pyrazin-7-yl]methanone]
[1]
  IC50: 1 to 10 µM
[2]
  IC50: > 100 µM

## O=C(NCc1ccccc1Cl)c1cnc2c(c1)N(Cc1cc(Cl)ccc1Cl)CCN2 [Example 256, 1-(2,5-Dichlorobenzyl)-1,2,3,4-tetrahydropyrido[2,3-b]pyrazine-7-carboxylic acid 2-chloro-benzylamide]
[1]
  IC50: 1 to 10 µM
[2]
  IC50: > 100 µM

## O=C(c1cnc2c(c1)N(Cc1cc(Cl)ccc1Cl)CCN2)N1CCN(c2ccccc2C(F)(F)F)CC1 [Example 257, [1-(2,5-Dichlorobenzyl)-1,2,3,4-tetrahydropyrido[2,3-b]pyrazin-7-yl]-[4-(2-(trifluoromethyl)phenyl)piperazin-1-yl]methanone]
[1]
  IC50: 10 to 100 µM
[2]
  IC50: > 100 µM

## COc1ccc(CNC(=O)c2cnc3c(c2)N(Cc2cc(Cl)ccc2Cl)CCN3)cc1 [Example 258, 1-(2,5-Dichlorobenzyl)-1,2,3,4-tetrahydropyrido[2,3-b]pyrazine-7-carboxylic acid 4-methoxybenzylamide]
[1]
  IC50: 1 to 10 µM
[2]
  IC50: > 100 µM

## O=C(NC1Cc2ccccc2C1)c1cnc2c(c1)N(Cc1cc(Cl)ccc1Cl)CCN2 [Example 259, 1-(2,5-Dichlorobenzyl)-1,2,3,4-tetrahydropyrido[2,3-b]pyrazine-7-carboxylic acid indan-2-ylamide]
[1]
  IC50: 1 to 10 µM
[2]
  IC50: > 100 µM

## O=C(c1cnc2c(c1)N(Cc1cc(Cl)ccc1Cl)CCN2)N1CCN(CCc2ccccc2)CC1 [Example 260, [1-(2,5-Dichlorobenzyl)-1,2,3,4-tetrahydropyrido[2,3-b]pyrazin-7-yl]-(4-phenethyl-piperazin-1-yl)methanone]
[1]
  IC50: 1 to 10 µM
[2]
  IC50: > 100 µM

## O=C(c1cnc2c(c1)N(Cc1cc(Cl)ccc1Cl)CCN2)N1CCN(c2ccccc2Cl)CC1 [Example 261, [4-(2-Chlorophenyl)piperazin-1-yl]-[1-(2,5-dichlorobenzyl)-1,2,3,4-tetrahydropyrido[2,3-b]pyrazin-7-yl]methanone]
[1]
  IC50: 1 to 10 µM
[2]
  IC50: > 100 µM

— patent US7601716B2, “Pyridopyrazines and derivatives thereof as ALK and c-Met inhibitors” (Cephalon, Inc., priority 2006, dated 2009)
